Molecular target: T1, glucan synthase (GS) (Candida albicans, UniProt O13428)
T1 construct: Extraction of GS activity from membranes was performed at a protein concentration of 5 mg/mL in extraction buffer; endogenous in cells; host or cells: Candida albicans MY1055 (membrane fraction, detergent extraction, product entrapment)
Experiment: Glucan synthase inhibition (polymerization assay, 96-well)
Assay type: biochemical
Conditions: glucan synthase prepared from Candida albicans MY1055; 60 min incubation at 22° C.; read-out: Candida Albicans GS IC50 (ng/mL) (converted)
Procedure, shortened: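 Partially purified membrane glucan synthase from C. albicans MY1055, 60 min at 22° C with 0.5 mM 3H-UDPG, 25 μM GTP-γ-S, pH 7.5 HEPES, 25 mM KF. TCA-precipitated glucan filtered and scintillation counted; IC50 (ng/mL) from sigmoidal fit of duplicates over 3-fold dilutions.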

T1 sequence (O13428 1-1897): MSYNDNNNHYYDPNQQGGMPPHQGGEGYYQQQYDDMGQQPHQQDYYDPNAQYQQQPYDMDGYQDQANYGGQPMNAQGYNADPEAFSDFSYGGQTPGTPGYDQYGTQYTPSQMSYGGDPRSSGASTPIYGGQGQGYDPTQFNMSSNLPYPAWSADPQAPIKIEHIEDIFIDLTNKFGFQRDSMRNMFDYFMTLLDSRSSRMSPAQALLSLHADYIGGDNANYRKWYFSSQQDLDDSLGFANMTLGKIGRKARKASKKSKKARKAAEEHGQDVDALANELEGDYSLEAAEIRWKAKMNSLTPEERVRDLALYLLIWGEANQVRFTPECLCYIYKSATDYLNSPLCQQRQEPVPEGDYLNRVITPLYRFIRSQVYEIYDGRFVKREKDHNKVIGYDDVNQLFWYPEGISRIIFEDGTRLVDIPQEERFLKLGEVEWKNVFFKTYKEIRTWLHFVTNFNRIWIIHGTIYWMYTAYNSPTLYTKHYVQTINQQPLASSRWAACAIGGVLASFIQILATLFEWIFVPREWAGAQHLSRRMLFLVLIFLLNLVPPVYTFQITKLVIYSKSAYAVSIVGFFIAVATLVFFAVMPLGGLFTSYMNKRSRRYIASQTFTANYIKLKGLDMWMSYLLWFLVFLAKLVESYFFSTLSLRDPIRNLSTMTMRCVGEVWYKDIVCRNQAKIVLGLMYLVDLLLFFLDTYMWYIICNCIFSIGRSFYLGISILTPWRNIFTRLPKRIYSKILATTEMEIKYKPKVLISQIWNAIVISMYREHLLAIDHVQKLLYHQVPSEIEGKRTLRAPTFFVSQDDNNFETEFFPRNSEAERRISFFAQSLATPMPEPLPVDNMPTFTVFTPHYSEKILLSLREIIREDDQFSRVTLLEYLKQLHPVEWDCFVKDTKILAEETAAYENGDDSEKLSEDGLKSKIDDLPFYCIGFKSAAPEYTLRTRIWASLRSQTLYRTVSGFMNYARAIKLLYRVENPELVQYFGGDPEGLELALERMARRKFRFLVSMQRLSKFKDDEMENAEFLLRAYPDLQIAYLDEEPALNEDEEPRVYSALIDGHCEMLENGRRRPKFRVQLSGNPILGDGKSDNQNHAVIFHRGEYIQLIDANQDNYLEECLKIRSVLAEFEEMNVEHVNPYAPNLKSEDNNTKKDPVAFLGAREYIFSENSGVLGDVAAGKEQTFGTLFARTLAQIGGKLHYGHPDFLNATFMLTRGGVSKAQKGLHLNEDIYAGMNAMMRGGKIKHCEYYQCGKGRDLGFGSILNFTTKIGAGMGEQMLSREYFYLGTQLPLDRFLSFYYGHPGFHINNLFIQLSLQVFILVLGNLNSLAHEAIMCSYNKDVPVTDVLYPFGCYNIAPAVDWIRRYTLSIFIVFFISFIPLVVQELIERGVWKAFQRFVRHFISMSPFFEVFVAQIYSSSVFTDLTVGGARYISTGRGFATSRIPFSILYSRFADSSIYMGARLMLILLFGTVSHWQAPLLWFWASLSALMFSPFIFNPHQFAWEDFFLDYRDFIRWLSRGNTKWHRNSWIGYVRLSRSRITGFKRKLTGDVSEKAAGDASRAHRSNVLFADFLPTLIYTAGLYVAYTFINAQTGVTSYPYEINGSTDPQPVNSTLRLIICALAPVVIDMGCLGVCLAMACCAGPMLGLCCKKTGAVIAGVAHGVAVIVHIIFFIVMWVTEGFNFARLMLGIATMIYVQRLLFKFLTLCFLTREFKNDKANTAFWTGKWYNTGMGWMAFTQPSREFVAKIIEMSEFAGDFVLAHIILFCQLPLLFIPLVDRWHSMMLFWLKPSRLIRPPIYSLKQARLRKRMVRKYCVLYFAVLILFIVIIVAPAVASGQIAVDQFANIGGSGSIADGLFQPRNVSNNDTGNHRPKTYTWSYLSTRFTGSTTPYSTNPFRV
T1 sequence (O42825 1-195 partner limits assumed): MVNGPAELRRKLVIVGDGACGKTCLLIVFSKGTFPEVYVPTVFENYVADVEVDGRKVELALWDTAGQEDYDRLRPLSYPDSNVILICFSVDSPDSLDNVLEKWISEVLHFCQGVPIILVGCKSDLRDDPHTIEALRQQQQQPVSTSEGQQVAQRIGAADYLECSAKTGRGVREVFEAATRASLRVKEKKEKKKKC

IC50 | Structure (SMILES)
4.3 nM | CCN[C@@](C)(CO[C@H]1[C@H](n2nnc(N)n2)C[C@@]23COC[C@]1(C)[C@@H]2CC[C@H]1C3=CC[C@@]2(C)[C@H](C(=O)O)[C@@](C)([C@H](C)C(C)C)CC[C@]12C)C(C)(C)C [Example 20, (1S,4aR,6aS,7R,8R,10aR,10bR,12aR,14R,15R)-14-(5-amino-2H-tetrazol-2-yl)-8-[(1R)-1,2-dimethylpropyl]-15-[[(2R)-2-(ethylamino)-2,3,3-trimethylbutyl]oxy]-1,6,6a,7,8,9,10,10a,10b,11,12,12a-dodecahydro-1,6a,8,10a-tetramethyl-4H-1,4a-propano-2H-phenanthro[1,2-c]pyran-7-carboxylic acid]
40.5 nM | CC(C)[C@@H](C)[C@@]1(C)CC[C@]2(C)[C@H]3CC[C@@H]4[C@@]5(COC[C@@]4(C)[C@@H](OCCC4(N)CCCC4)[C@H](n4nnc(N)n4)C5)C3=CC[C@@]2(C)[C@@H]1C(=O)O [Example 25, (1S,4aR,6aS,7R,8R,10aR,10bR,12aR,14R,15R)-15-[2-(1-aminocyclopentyl)ethoxy]-14-(5-amino-2H-tetrazol-2-yl)-8-[(1R)-1,2-dimethylpropyl]-1,6,6a,7,8,9,10,10a,10b,11,12,12a-dodecahydro-1,6a,8,10a-tetramethyl-4H-1,4a-propano-2H-phenanthro[1,2-c]pyran-7-carboxylic acid]
